Experimental data published in PMC11243320, “Tailoring Fibroblast-Activation Protein Targeting for Theranostics: A Comparative Preclinical Evaluation of the ^68Ga- and ^177Lu-Labeled Monomeric and Dimeric Fibroblast-Activation Protein Inhibitors DOTA.SA.FAPi and DOTAGA.(SA.FAPi)2” (Molecules, 2024).

Test system: CAFs
Experiment: Externalization studies in CAFs
Type: cell-based, human
Conditions: after 24 h at 37 °C
Protocol: For saturation studies, CAFs were incubated with increasing concentrations of the radiotracers (0.1–10 nM). For internalization studies, approximately 2.5 pmol of the radiotracers were added to CAFs followed by incubation for 15, 30, 60, 90, 120, 180 and 240 min for the ^68Ga-labeled or 30, 60, 120, 240 and 360 min for the ^177Lu-labeled radiotracers at 37 °C, 5% CO2. For the externalization studies, approximately 2.5 pmol of the ^177Lu-labeled radiotracers were added to CAFs followed by incubation for 2 h at 37 °C, 5% CO2. Afterward, the amount of the externalized activity from the CAFs was determined at 0, 10, 20, 30, 60, 120, 240, and 1440 min (Supplemental Data).
Saturation Binding Studies […]
At each time point, the internalization was stopped by putting the plates on ice, removing the me-dium, and washing the cells twice with ice-cold PBS. […] The radioactivity of the culture medium, the receptor bound, and the internal-ized fractions were measured in a γ-counter.
The externalization rate of [177Lu]Lu-DOTA.SA.FAPi and [177Lu]Lu-DOTAGA.(SA.FAPi)2 was studied af-ter CAFs were incubated for 2 h with 2.5 pmol/well of each 177Lu-lebeled radioligand. […] The radioactivity of the culture medium, the receptor bound , the internalized and the externalized fractions were measured in a γ -counter. […]

## N#C[C@@H]1CC(F)(F)CN1C(=O)CNC(=O)c1ccnc2ccc(OCCCCNc3c(NCCNC(=O)CN4CCN(CC(=O)[O-])CCN(CC(=O)[O-])CCN(CC(=O)[O-])CC4)c(=O)c3=O)cc12.[177Lu+3] [[^177Lu]Lu-DOTA.SA.FAPi]
  Total internalized activity released from the CAFs into the medium: more than 93%
  Total internalized activity remaining in the CAFs: 7%
